{"source": "patent US20220249596A1", "about": "“PIC1 PEPTIDE COMPOSITIONS AND METHODS OF USE THEREOF FOR TREATMENT OF HYPOXIC ISCHEMIC ENCEPHALOPATHY” (REALTA HOLDINGS, LLC, priority 2019, published 2022)", "key": {"brain infarct after HIE": {"tested_on": "brain infarct after HIE", "settings": "rat, in vivo, ip, 160 mg/kg"}, "C3aR": {"tested_on": "C3aR", "test": "Whole brain C3aR expression, Western blotting and immunofluorescence", "assay_type": "in vivo, rat", "settings": "PIC1 group versus NT animals, P<0.05", "protocol": "(§1) After blocking for one hour at room temperature, tissues were incubated with 1:300 goat anti-Iba1 (Abcam), 1:250 goat anti-GFAP (Abcam), 1:500 chicken anti-NeuN (Millipore, Billerica, Mass.), or 1:100 mouse anti-NeuN (Millipore) in host appropriate blocking serum overnight at 4° C. Primary antibodies were probed with 1:500 donkey anti-goat (Abcam), goat anti-chicken (Abcam), or goat anti-mouse (Abcam) AF 488 or 568 in appropriate blocking serum for one hour at room temperature. Tissues were blocked a second time with NGS for one hour at room temperature. Samples were then probed with 1:300 mouse anti-C1q (Abcam), 1:300 rabbit anti-C9, 1:50 rabbit anti-MPO (Abcam), 1:200 rabbit anti-TMEM (Novus Bio, Centennial, Colo.), 1:100 rabbit anti-C3aR (Bioss), 1:100 Mouse anti-C5aR (Hycult), or 1:200 chicken anti-C3/C3a (Abcam) in NGS overnight at 4° C. and then with 1:500 goat anti-mouse, rabbit, or chicken (Abcam) AF 488 or 568 in NGS for one hour at room temperature.\nWithout wishing to be bound by theory, C3a is generated at the convergence of all known complement activation pathways (i.e., the classical, alternate and lectin pathways). To investigate further, C3aR levels in the brain were measured by Western blotting and immunofluorescence (FIG. 5). Western blotting was performed as follows. […]"}, "MPO (Myeloperoxidase)": {"tested_on": "MPO (Myeloperoxidase)", "test": "Myeloperoxidase expression in cortex (oxidant stress)", "assay_type": "in vivo, rat", "settings": "48 hours after injury, versus NT animals, P<0.01", "protocol": "as §1\nTo examine the effect of PIC1 treatment on oxidant stress, expression of the enzyme myeloperoxidase (MPO) was measured in the cortex of the brain. MPO is an enzyme from neutrophils that damages invading and host cells alike. MPO is one of the markers of oxidative stress after ischemic injury and is responsible for generating reactive oxygen species (hypochlorous acid and hydrogen peroxide). […]"}, "[1]": {"test": "Barnes maze, spatial learning and memory", "assay_type": "in vivo, rat", "protocol": "Spatial learning and memory were evaluated by measuring navigational ability of rats in a Barnes maze 8 weeks after initial injury. The Barnes maze tests memory across test sessions or trials and is more closely related to long-term memory. The test was performed using a Plexiglas maze 122 cm in diameter, with 20 equidistant holes (10.5 cm diameter) spaced every […], and centered 20 cm from the outer perimeter. An escape box (8 cm in depth) was placed under one of the holes. The position of the escape box was varied randomly from rat to rat, but kept constant for a given rat throughout testing. A floodlight was placed over the maze to serve as an aversive stimulus.\nPrior to testing, the rats underwent habituation sessions once a day for 5 consecutive days. In each session, the rats were placed in a holding box in the middle of the maze and allowed to get acclimated for 60 seconds. The holding box was then lifted up from the rats so that the rats were allowed to explore. The test was over when either the rat found the burrowing hole and burrowed for 10 seconds or the 5-minute time limit was reached. […] On the 14th day after the habituation sessions, the rats were tested to evaluate memory retention. Latency to investigate any hole, escape latency, and number of errors during the test trials were analyzed by two-way ANOVA, followed by Bonferroni's post hoc comparison matrix. The same measurements recorded during the memory retention test were analyzed by Student's t-test. Significance was considered at p<0.05."}}, "note": "No end group written: not given here.", "data": [{"substance": "IALILEPICCQERAA-dPEG24 (cysteine pairing not given here) [PIC1]", "values": [{"measurement": "decrease in brain infarct size", "setting": "brain infarct after HIE", "value": 68, "unit": "%"}, {"measurement": "whole brain C3aR expression", "setting": "C3aR", "value": "significantly higher"}, {"measurement": "decrease of MPO expression in brain", "setting": "MPO (Myeloperoxidase)", "value": 83, "unit": "%"}, {"measurement": "Barnes maze: latency in finding the escape hole", "setting": "[1]; 8 weeks after injury, versus NT and HT animals", "value": "significantly shorter"}, {"measurement": "Barnes maze: seeking strategy", "setting": "[1]; direct versus random or serial strategy", "value": "more likely to use a direct strategy"}, {"measurement": "Barnes maze: errors in finding the escape hole", "setting": "[1]; versus HT-treated animals", "value": "significantly fewer"}, {"measurement": "Barnes maze: errors in finding the escape hole", "setting": "[1]; versus NT animals, P=0.06, not statistically significant", "value": "trended towards fewer errors"}]}]}
